Measurements as given in patent US20100069366A1, “ANTIBACTERIAL QUINOLINE DERIVATIVES” (JANSSEN-CILAG, priority 2006, published 2010).
Converted amounts (≈) assume the structure as drawn. Like-named read-outs stand apart in the source and are kept apart here.

Assays:
Format in all cases: cell-based
M. Smegmatis ATCC607 = assay: In-vitro anti-bacterial activity against strain M. smegmatis ATCC607; conditions: for IC90: Mycolicibacterium smegmatis
Method: Flat-bottom, sterile 96-well plastic microtiter plates were filled with 180 μl of sterile deionized water, supplemented with 0.25% BSA. Subsequently, stock solutions (7.8× final test concentration) of compounds were added in 45 μl volumes to a series of duplicate wells in column 2 so as to allow evaluation of their effects on bacterial growth. Serial five-fold dilutions (45 μl in 180 μl) were made directly in the microtiter plates from column 2 to 11 using a customised robot system (Zymark Corp., Hopkinton, Mass.). Pipette tips were changed after every 3 dilutions to minimize pipetting errors with high hydrophobic compounds. Untreated control samples with (column 1) and without (column 12) inoculum were included in each microtiter plate. Approximately 250 CFU per well of bacteria inoculum, in a volume of 100 μl in 2.8× Mueller-Hinton broth medium, was added to the rows A to H, except column 12. The same volume of broth medium without inoculum was added to column 12 in row A to H. The cultures were incubated at 37° C. for 48 hours in a humidified 5% CO2 atmosphere (incubator with open air valve and continuous ventilation). At the end of incubation, two days after inoculation, the bacterial growth was quantitated fluorometrically. Therefore Alamar Blue (10×) was added to all wells in a volume of 20 μl and plates were incubated for another 2 hours at […]
The fluorescence was read in a computer-controlled fluorometer (Cytofluor, Biosearch) at an excitation wavelength of 530 nm and an emission wavelength of 590 nm (gain 30).

[1] = system: Staphylococcus aureus (ATCC29213); assay: Microtitre plate assay, IC90 determination, STA 29213
Method: (§1) The bacteria used in this study were grown overnight in flasks containing 100 ml Mueller-Hinton Broth (Becton Dickinson—cat. no. 275730) in sterile de-ionized water, with shaking, at 37° C. Stocks (0.5 ml/tube) were stored at −70° C. until use. Bacteria titrations were performed in microtiter plates to detect the TCID50, in which the TCID50 represents the dilution that gives rise to bacterial growth in 50% of inoculated cultures.
(§2) In general, an inoculum level of approximately 100 TCID50 was used for susceptibility testing.
(§3) Flat-bottom, sterile 96-well plastic microtiter plates were filled with 180 μl of sterile deionized water, supplemented with 0.25% BSA. Subsequently, stock solutions (7.8× final test concentration) of compounds were added in 45 μl volumes in column 2 Serial five-fold dilutions (45 μl in […]) were made directly in the microtiter plates from column 2 to reach column 11. Untreated control samples with (column 1) and without (column 12) inoculum were included in each microtiter plate. Depending on the bacteria type, approximately 10 to 60 CFU per well of bacteria inoculum (100 TCID50), in a volume of 100 μl in 2.8× Mueller-Hinton broth medium, was added to the rows A to H, except column 12. The same volume of broth medium without inoculum was added to column 12 in row A to H. The cultures were incubated at 37° C. for 24 hours under a normal atmosphere (incubator with open air valve and continuous ventilation). At the end of incubation, one day after inoculation, the bacterial growth was quantitated fluorometrically. Therefore resazurin (0.6 mg/ml) was added in a volume of 20 μl to all wells 3 hours after inoculation, and the plates were re-incubated overnight. A change in colour from blue to pink indicated the growth of bacteria. The fluorescence was read in a computer-controlled fluorometer (Cytofluor Biosearch) at an excitation wavelength of 530 nm and an emission wavelength of 590 nm. The % growth inhibition achieved by the compounds was calculated according to standard methods.

[2] = system: Streptococcus pneumoniae (ATCC6305); assay: Microtitre plate assay, IC90 determination, SPN 6305; conditions: 90% inhibitory concentration for bacterial growth, resazurin
Method: as §1, §2, §3

[3] = system: Enterococcus faecalis (ATCC29212); assay: Microtitre plate assay, IC90 determination, EFA 29212
Method: as §1, §2, §3

[4] = system: Streptococcus pyogens (ATCC8668); assay: Microtitre plate assay, IC90 determination, SPY 8668
Method: as §1, §2, §3

[5] = system: Pseudomonas aeruginosa (ATCC27853); assay: Microtitre plate assay, IC90 determination, PAE 27853
Method: as §1, §2, §3

[6] = system: methicilline resistant Staphylococcus aureus (MRSA) (a clinical isolate from the University of Antwerp); assay: Microtitre plate assay, IC90 determination, STA RMETH; conditions: Staphylococcus aureus, 90% inhibitory concentration for bacterial growth, resazurin, read-out: IC90 (μg/ml) STA RMETH
Method: as §1, §2, §3

[7] = system: Staphylococcus aureus (ATCC25923); assay: Microtitre plate assay, IC90 determination, STA 25923
Method: as §1, §2, §3

[8] = 90% inhibitory concentration for bacterial growth, 48 hours, Alamar Blue fluorescence
[9] = Staphylococcus aureus ATCC29213, 90% inhibitory concentration for bacterial growth, resazurin
[10] = Streptococcus pneumoniae ATCC6305
[11] = Enterococcus faecalis ATCC29212, 90% inhibitory concentration for bacterial growth, resazurin
[12] = Streptococcus pyogens ATCC8668, 90% inhibitory concentration for bacterial growth, resazurin
[13] = Pseudomonas aeruginosa ATCC27853, 90% inhibitory concentration for bacterial growth, resazurin
[14] = ATCC607, 90% inhibitory concentration for bacterial growth, 48 hours, Alamar Blue fluorescence, read-out: M. smegmatis IC90
[15] = Staphylococcus aureus ATCC29213, 90% inhibitory concentration for bacterial growth, resazurin, read-out: IC90 (μg/ml) STA 29213
[16] = Streptococcus pneumoniae ATCC6305, read-out: IC90 (μg/ml) SPN 6305
[17] = Enterococcus faecalis ATCC29212, 90% inhibitory concentration for bacterial growth, resazurin, read-out: IC90 (μg/ml) EFA 29212
[18] = Streptococcus pyogens ATCC8668, 90% inhibitory concentration for bacterial growth, resazurin, read-out: IC90 (μg/ml) SPY 8668
[19] = Pseudomonas aeruginosa ATCC27853, 90% inhibitory concentration for bacterial growth, resazurin, read-out: IC90 (μg/ml) PAE 27853
[20] = Staphylococcus aureus ATCC25923, 90% inhibitory concentration for bacterial growth, resazurin, read-out: IC90 (μg/ml) STA 25923
[21] = ATCC607, 48 h, read-out: M. smegmatis IC90 (μg/ml), 90% inhibitory concentration for bacterial growth, Alamar Blue fluorescence
[22] = Streptococcus pneumoniae, ATCC6305, read-out: IC90 (μg/ml) SPN 6305, Streptococcus pneumoniae ATCC6305
[23] = Enterococcus faecalis, ATCC29212, read-out: IC90 (μg/ml) EFA 29212
[24] = Streptococcus, ATCC8668, read-out: IC90 (μg/ml) SPY 8668
[25] = Pseudomonas aeruginosa, ATCC27853, read-out: IC90 (μg/ml) PAE 27853

COc1nc2ccc(-c3ccccc3)cc2cc1C(C(=CCN(C)C)c1cccc2ccccc12)c1ccccc1 (mixture of isomers) [Compound 32]
M. smegmatis IC90 (M. Smegmatis ATCC607; [8]): 1.69 µg/mL | IC90 (μg/ml) STA 29213 [1, 9]: 1.69 µg/mL | IC90 (μg/ml) SPN 6305 [2, 10]: 1.9 µg/mL | IC90 (μg/ml) EFA 29212 [3, 11]: 9.51 µg/mL | IC90 (μg/ml) SPY 8668 [4, 12]: 3.79 µg/mL | IC90 (μg/ml) PAE 27853 [5, 13]: 3.79 µg/mL

COc1nc2ccc(Br)cc2cc1C(=C(C)CCN(C)C)c1ccccc1 (mixture of isomers) [Compound 35]
M. smegmatis IC90 (M. Smegmatis ATCC607; [8]): 3.79 µg/mL | IC90 (μg/ml) STA 29213 [1, 9]: 33.79 µg/mL | IC90 (μg/ml) SPN 6305 [2, 10]: 1.35 µg/mL | IC90 (μg/ml) EFA 29212 [3, 11]: 15.09 µg/mL | IC90 (μg/ml) SPY 8668 [4, 12]: 1.35 µg/mL | IC90 (μg/ml) PAE 27853 [5, 13]: 15.09 µg/mL

COc1nc2ccc(Br)cc2cc1C(C(=CCN(C)C)c1cccc(F)c1)c1ccccc1 (racemic) [Compound 25]
M. smegmatis IC90 (M. Smegmatis ATCC607; [8]): 40.15 µg/mL | IC90 (μg/ml) STA 29213 [1, 9]: 22.58 µg/mL (≈ 44.7 µM) | IC90 (μg/ml) SPN 6305 [2, 10]: 8.01 µg/mL (≈ 15.8 µM) | IC90 (μg/ml) EFA 29212 [3, 11]: 40.15 µg/mL (≈ 79.4 µM) | IC90 (μg/ml) SPY 8668 [4, 12]: 17.93 µg/mL (≈ 35.5 µM) | IC90 (μg/ml) PAE 27853 [5, 13]: 40.15 µg/mL (≈ 79.4 µM)

COc1nc2ccc(C)cc2cc1C(C(=CCN(C)C)c1ccccc1)c1ccccc1 (racemic) [Compound 30]
M. smegmatis IC90 (M. Smegmatis ATCC607; [8]): 2.67 µg/mL | IC90 (μg/ml) STA 29213 [1, 9]: 6.7 µg/mL (≈ 15.9 µM) | IC90 (μg/ml) SPN 6305 [2, 10]: 1.34 µg/mL (≈ 3.17 µM) | IC90 (μg/ml) EFA 29212 [3, 11]: 11.91 µg/mL (≈ 28.2 µM) | IC90 (μg/ml) SPY 8668 [4, 12]: 6.7 µg/mL (≈ 15.9 µM) | IC90 (μg/ml) PAE 27853 [5, 13]: 13.36 µg/mL (≈ 31.6 µM)

CSc1nc2ccc(-c3ccccc3)cc2cc1C(=C(CCN(C)C)c1ccccc1)c1ccccc1 (single isomer, unassigned) [Compound 40]
M. smegmatis IC90 (M. Smegmatis ATCC607; [8]): 1.58 µg/mL | IC90 (μg/ml) STA 29213 [1, 9]: 19.93 µg/mL (≈ 39.8 µM) | IC90 (μg/ml) SPN 6305 [2, 10]: 3.98 µg/mL (≈ 7.95 µM) | IC90 (μg/ml) EFA 29212 [3, 11]: 15.83 µg/mL (≈ 31.6 µM) | IC90 (μg/ml) SPY 8668 [4, 12]: 7.94 µg/mL (≈ 15.9 µM)

COc1nc2ccc(Br)cc2cc1/C(=C(/CCN(C)C)c1cccc2ccccc12)c1ccccc1 [Compound 9]
IC90 (M. Smegmatis ATCC607; [14]): 1.7 µg/mL (≈ 3.16 µM) | IC90 [1, 15]: 2.69 µg/mL (≈ 5 µM) | IC90 [2, 16]: 9.56 µg/mL (≈ 17.8 µM) | IC90 [3, 17]: 10.7 µg/mL (≈ 19.9 µM) | IC90 [4, 18]: 10.7 µg/mL (≈ 19.9 µM) | IC90 [5, 19]: 9.56 µg/mL (≈ 17.8 µM) | IC90 [6]: 3.81 µg/mL (≈ 7.09 µM) | IC90 [7, 20]: 5.38 µg/mL (≈ 10 µM)

COc1nc2ccc(Br)cc2cc1C(/C(=C/CN(C)C)c1cccc2ccccc12)c1ccccc1 (stereo not drawn) [Compound 10]
IC90 (M. Smegmatis ATCC607; [14]): 0.43 µg/mL (≈ 0.8 µM) | IC90 [1, 15]: 4.79 µg/mL (≈ 8.91 µM) | IC90 [2, 16]: 12 µg/mL (≈ 22.4 µM) | IC90 [3, 17]: 5.38 µg/mL (≈ 10 µM) | IC90 [4, 18]: 9.56 µg/mL (≈ 17.8 µM) | IC90 [5, 19]: 21.4 µg/mL (≈ 39.8 µM) | IC90 [6]: 12 µg/mL (≈ 22.4 µM) | IC90 [7, 20]: 4.27 µg/mL (≈ 7.94 µM)

COc1nc2ccc(-c3ccccc3)cc2cc1C(/C(=C/CN(C)C)c1ccccc1)c1ccccc1 (stereo not drawn) [Compound 11]
IC90 (M. Smegmatis ATCC607; [21]): 1.53 µg/mL (≈ 3.16 µM) | IC90 ([1]; Staphylococcus aureus, ATCC29213, read-out: IC90 (μg/ml) STA 29213): 1.53 µg/mL (≈ 3.16 µM) | IC90 [2, 22]: 1.22 µg/mL (≈ 2.52 µM) | IC90 [3, 23]: 15.3 µg/mL (≈ 31.6 µM) | IC90 [4, 24]: 7.68 µg/mL (≈ 15.8 µM) | IC90 [5, 25]: 7.68 µg/mL (≈ 15.8 µM)

COc1nc2ccc(Br)cc2cc1C(/C(=C/CN(C)C)CCc1ccccc1)c1ccccc1 (stereo not drawn) [Compound 13]
IC90 (M. Smegmatis ATCC607; [21]): 1.73 µg/mL (≈ 3.36 µM) | IC90 [2, 22]: 8.67 µg/mL (≈ 16.8 µM) | IC90 [3, 23]: 12.2 µg/mL (≈ 23.7 µM) | IC90 [4, 24]: 9.73 µg/mL (≈ 18.9 µM) | IC90 [5, 25]: 12.2 µg/mL (≈ 23.7 µM) | IC90 ([7]; Staphylococcus aureus, ATCC25923, read-out: IC90 (μg/ml) STA 25923): 10.9 µg/mL (≈ 21.2 µM)

COc1nc2ccc(Br)cc2cc1C(/C(C)=C/CN(C)C)c1ccccc1 (stereo not drawn) [Compound 14]
IC90 (M. Smegmatis ATCC607; [14]): 1.35 µg/mL (≈ 3.17 µM) | IC90 [1, 15]: 33.8 µg/mL (≈ 79.4 µM) | IC90 [2, 16]: 1.35 µg/mL (≈ 3.17 µM) | IC90 [3, 17]: 37.9 µg/mL (≈ 89.1 µM) | IC90 [4, 18]: 26.8 µg/mL (≈ 63.1 µM) | IC90 [5, 19]: 37.9 µg/mL (≈ 89.1 µM)
